Each structure is given as a SMILES string.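 In this assay, cells in 96-well plates receive the compound at five concentrations for 48 hours. Endpoints are linearly interpolated between the surrounding concentrations. GI50: concentration for 50% inhibition of growth. TGI denotes the concentration required for complete inhibition of growth.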 Some results are limits rather than exact numbers.

In PubChem BioAssay (NCI) one finds TGI and GI50 data, which are given here for 14 molecules.

Some test systems named below: SNB-78 CNS; HOP-92 NSCLC; HOP-18 NSCLC; KM20L2 colon; DLD-1 colon; DMS 273 small cell lung; SK-MEL-5 melanoma; OVCAR-3 ovarian; HL-60(TB) leukemia; LXFL 529 NSCLC; KM12 colon; M19-MEL melanoma; OVCAR-5 ovarian; DMS 114 small cell lung; SN12K1 renal; XF 498 CNS; EKVX NSCLC; HS 578T breast.
Test in all cases: growth of human tumour cells (NCI), 48 h

Turning to `COc1ccc2c([nH]c3c(O)c(-c4c(C)cc5c([nH]c6c(CC=C(C)C)c(OC)ccc65)c4O)c(C)cc32)c1CC=C(C)C`, the TGI in the test on SNB-78 CNS, with HOP-92 NSCLC, in the test on HOP-18 NSCLC, with KM20L2 colon, in the test with DLD-1 colon and with DMS 273 small cell lung was over 100 µM each time. In addition, the TGI with SK-MEL-5 melanoma, in the test on OVCAR-3 ovarian, in the test with HL-60(TB) leukemia, in the test on LXFL 529 NSCLC, in the test on KM12 colon and in the test on M19-MEL melanoma was over 100 µM in each case. In addition, the TGI with OVCAR-5 ovarian and in the test with DMS 114 small cell lung was over 100 µM each time.
Take `O=c1c2ccccc2nc(-c2ccccc2)n1NC(=S)Nc1cccc(Cl)c1`: the TGI with HOP-92 NSCLC is 94.5 µM; in the test on HOP-18 NSCLC, over 100 µM; in the test on DLD-1 colon, over 100 µM; in the test with DMS 273 small cell lung, over 100 µM; in the test on SK-MEL-5 melanoma, over 100 µM; in the test on HL-60(TB) leukemia, over 100 µM. The TGI in the test with LXFL 529 NSCLC, in the test with KM12 colon, with M19-MEL melanoma, in the test on OVCAR-5 ovarian and in the test with DMS 114 small cell lung was over 100 µM in each case.
Take `C(=C/c1nc2ccccc2o1)/c1ccc2c(c1)OCO2`: the TGI in the test on SNB-78 CNS was 90.6 µM; with SN12K1 renal it was 42 µM; in the test on HOP-92 NSCLC it was 69.7 µM; in the test on HOP-18 NSCLC, 60.8 µM; with KM20L2 colon, over 53 µM; with DLD-1 colon, over 100 µM. Further, the TGI with DMS 273 small cell lung is over 37.5 µM; with SK-MEL-5 melanoma, 56.6 µM; in the test on OVCAR-3 ovarian, 29.1 µM; in the test on HL-60(TB) leukemia, over 96.5 µM; in the test with XF 498 CNS it was 48.8 µM; in the test on EKVX NSCLC it was over 100 µM. The TGI was 26.1 µM with KM12 colon, over 100 µM with M19-MEL melanoma, over 100 µM in the test with OVCAR-5 ovarian and over 100 µM in the test with DMS 114 small cell lung.
As to `CC(=O)Nc1ccc(-c2nnc(SCC(=O)Nc3ccc(Cl)cc3)o2)cc1`, the TGI is over 100 µM in the test on SNB-78 CNS; 30.2 µM in the test on HOP-18 NSCLC; 33.3 µM in the test on KM20L2 colon; 27.9 µM in the test on DLD-1 colon; 40.3 µM in the test with DMS 273 small cell lung; 19.7 µM with SK-MEL-5 melanoma. In addition, the TGI with OVCAR-3 ovarian amounted to 31.1 µM; with HL-60(TB) leukemia it was 40.1 µM; with LXFL 529 NSCLC, 22.5 µM; in the test on EKVX NSCLC, 38.4 µM; in the test on KM12 colon it was 29 µM; in the test with M19-MEL melanoma, 45.4 µM. For the same molecule, the TGI was 31.6 µM in the test with OVCAR-5 ovarian and 4.29 µM in the test on DMS 114 small cell lung.
On to `CCOC(C)OC1CC(n2cc(C)c(=O)[nH]c2=O)OC1CO` (stereo unspecified), for which the TGI in the test with SNB-78 CNS, in the test with HOP-92 NSCLC, in the test with HOP-18 NSCLC, with KM20L2 colon, with DLD-1 colon and in the test on DMS 273 small cell lung was over 100 µM each time. Besides, the TGI with OVCAR-3 ovarian, with HL-60(TB) leukemia, with LXFL 529 NSCLC, in the test on XF 498 CNS, in the test on EKVX NSCLC and in the test on KM12 colon was over 100 µM each time. Besides, the TGI in the test on M19-MEL melanoma, in the test with OVCAR-5 ovarian and with DMS 114 small cell lung was over 100 µM in each case.
Regarding `O=C(CCC1CCCCN1)Nc1ccc2c(c1)C(=O)c1ccc(NC(=O)CCN3CCCCC3)cc1C2=O` (stereo unspecified), the TGI with SNB-78 CNS is over 100 µM; in the test with HOP-92 NSCLC, 5.98 µM; in the test on HOP-18 NSCLC, 9.77 µM; in the test on KM20L2 colon, 14.5 µM; in the test on DLD-1 colon, 6.37 µM; in the test on DMS 273 small cell lung, 7.55 µM. In addition, the TGI with SK-MEL-5 melanoma amounted to 3.27 µM; in the test on OVCAR-3 ovarian, 8.37 µM; in the test with LXFL 529 NSCLC it was 2.7 µM; in the test on KM12 colon, 6.99 µM; in the test on M19-MEL melanoma it was 5.71 µM; in the test with OVCAR-5 ovarian, 11.2 µM. Further, the TGI in the test on DMS 114 small cell lung was 2.97 µM.
Consider `CN(C)CN(C)c1nc(N(C)C)nc(N(C)CN(C)C)n1`, for which the TGI in the test on HOP-92 NSCLC is over 100 µM; in the test with HOP-18 NSCLC, over 100 µM; in the test with KM20L2 colon, over 100 µM; in the test on DLD-1 colon, over 100 µM; with DMS 273 small cell lung it was 33.3 µM; in the test on SK-MEL-5 melanoma it was over 100 µM. Besides, the TGI with OVCAR-3 ovarian is over 100 µM; in the test on HL-60(TB) leukemia, 36.4 µM; in the test on LXFL 529 NSCLC, over 100 µM; with XF 498 CNS, over 100 µM; in the test on EKVX NSCLC, over 100 µM; with KM12 colon, over 100 µM. This molecule also registered a TGI in the test on M19-MEL melanoma of over 100 µM.
As for `CCOC(=O)C(C)N1C(=O)c2ccccc2S1(=O)=O` (stereo unspecified), in the test with SNB-78 CNS, the GI50 is over 100 µM. Also, the TGI with SNB-78 CNS, with SN12K1 renal, in the test on HOP-92 NSCLC, in the test on HOP-18 NSCLC, in the test with DLD-1 colon and in the test with DMS 273 small cell lung was over 100 µM in each case. For the same molecule, the TGI in the test on SK-MEL-5 melanoma, with OVCAR-3 ovarian, in the test with HL-60(TB) leukemia, in the test with XF 498 CNS, in the test with EKVX NSCLC and in the test on KM12 colon was over 100 µM each time. Also, the TGI in the test with M19-MEL melanoma, with OVCAR-5 ovarian and in the test on DMS 114 small cell lung was over 100 µM throughout.
Regarding `CN/N=C(\C(=O)Nc1ccc(C)c(C)c1)C(C(=O)OC)c1nc2ccc([N+](=O)[O-])cc2[nH]c1=O` (stereo unspecified), the TGI in the test on SNB-78 CNS, with HOP-92 NSCLC, in the test with KM20L2 colon, in the test on DLD-1 colon, in the test on DMS 273 small cell lung and with SK-MEL-5 melanoma was over 100 µM throughout. Further, the TGI in the test on HL-60(TB) leukemia, in the test on LXFL 529 NSCLC, in the test with XF 498 CNS, with EKVX NSCLC, in the test on KM12 colon and in the test on M19-MEL melanoma was over 100 µM throughout. Besides, the TGI with OVCAR-5 ovarian and in the test on DMS 114 small cell lung was over 100 µM in each case.
In the case of `CCCCC[C@H]1CCCCCCCCCC(=O)OC2C(O[C@@H]3OC(C)[C@H](OC(=O)[C@@H](C)CC)C(O[C@@H]4OC(C)[C@H](O)C(O)[C@@H]4O)[C@@H]3OC(=O)[C@H](C)CC)[C@H](OC3C(O)[C@@H](O)C(C)O[C@H]3O1)OC(CO)[C@H]2O` (stereo partly specified), the TGI in the test on HOP-92 NSCLC was determined as 37.1 µM; in the test with HS 578T breast, 35.8 µM; in the test on SK-MEL-5 melanoma, 30.9 µM; in the test with OVCAR-3 ovarian, 32 µM; with HL-60(TB) leukemia it was 35.9 µM; in the test with EKVX NSCLC, 36.7 µM. For the same molecule, the TGI was found to be 35.8 µM in the test on KM12 colon and 30.6 µM with OVCAR-5 ovarian.
`Cc1ccc(NC(=O)CC(=O)n2nc(C)c(N=Nc3cccc(C)c3)c2C)cc1`: the TGI in the test with HOP-92 NSCLC, in the test with HS 578T breast, in the test on SK-MEL-5 melanoma, with OVCAR-3 ovarian, in the test on HL-60(TB) leukemia and in the test on EKVX NSCLC was over 100 µM each time. In addition, the TGI in the test on KM12 colon and in the test on OVCAR-5 ovarian was over 100 µM in each case.
Regarding `CCOC(=O)C(C/C=C/CO)N(C)C(=O)OC(C)(C)C` (stereo unspecified), the TGI in the test on HOP-92 NSCLC, in the test on HS 578T breast, in the test with SK-MEL-5 melanoma, in the test on OVCAR-3 ovarian, in the test on HL-60(TB) leukemia and with EKVX NSCLC was over 100 µM throughout. In addition, the TGI with KM12 colon and in the test on OVCAR-5 ovarian was over 100 µM in each case.
Consider `CN1CN(C(=O)N2CN(C)C(=O)N(C)C2)CN(C)C1=O`, for which the TGI in the test on SNB-78 CNS, in the test on HOP-18 NSCLC, in the test with KM20L2 colon, in the test with DLD-1 colon, with OVCAR-3 ovarian and in the test on HL-60(TB) leukemia was over 100 µM in each case. The TGI with LXFL 529 NSCLC, in the test on XF 498 CNS, in the test with EKVX NSCLC, in the test with KM12 colon, in the test with M19-MEL melanoma and with OVCAR-5 ovarian was over 100 µM throughout. In addition, the TGI in the test on DMS 114 small cell lung was over 100 µM.
For `CCOC(=O)C1=C(C)N(C2OC(COC(=O)c3ccccc3)C(OC(=O)c3ccccc3)C2OC(=O)c2ccccc2)C(=S)NC1c1ccccc1` (stereo unspecified), the TGI in the test on SNB-78 CNS is over 100 µM; with HOP-18 NSCLC it was over 100 µM; with KM20L2 colon, over 100 µM; with DLD-1 colon it was over 100 µM; in the test on SK-MEL-5 melanoma, 42.8 µM; in the test with OVCAR-3 ovarian, 71.9 µM. For the same molecule, the TGI is 33.9 µM in the test on HL-60(TB) leukemia; over 100 µM in the test with LXFL 529 NSCLC; 62.2 µM in the test on EKVX NSCLC; over 100 µM in the test on KM12 colon; over 100 µM with M19-MEL melanoma; over 100 µM in the test on OVCAR-5 ovarian. The TGI in the test on DMS 114 small cell lung was found to be 97.2 µM.
